According to US20240016942A1, “STAT DEGRADERS AND USES THEREOF” (Kymera Therapeutics, Inc., priority 2020, published 2024):

biological target: T1, STAT3 (Homo sapiens, UniProt P40763); assay: STAT3 HiBiT degradation assay (Nano-Glo HiBiT lytic detection) in transfected A549 cells; assay type: cell-based; settings: 24 h compound incubation, read-out: STAT3 HiBIT A549 degradation 24 h: Average external-Abs DC50
T1 construct: expressed in transfected cells; host or cells: A549
Experimental: Example 1. HiBiT Assay Protocol
Compound preparation and Cell seeding: The transfected A549 cells were harvested from dish into cell culture medium and cell numbers counted. Cells were diluted with culture medium to the desired density and 30 μL of cell suspension (about 2000 cells/well) were added into each well of a 384-well cell culture plate as designated and transferred into 37° C. 5% CO2 incubator for 24 h. Compounds were dissolved to 10 mM stock solution and 12 μL of the stock solution was transferred to a 384 LDV-plate. 3 fold, 10-point dilution was performed by transferring 4 μL compound into 8 μL DMSO using a TECAN (EVO200) liquid handler. 30 μl of diluted compound from compound source plate was transferred into the cell plate as designated by using Echo550 and transferred into 37° C. 5% CO2 incubator for 24 h.
Detection: Plates were removed from incubators and equilibrated at room temperature for 15 minutes. Nano-Glo Hibit Lytic Detection reagent (Promega Cat #N3040) was thawed and equilibrated to room temperature before the experiment. 30 μL of Nano-Glo Hibit Lytic Detection reagent was added into each well to be detected. The plates were held at room temperature for 10 min followed by reading on EnSpire.
Data analysis: The remaining activity was calculated following the formula: Remaining Activity (%)=100%×(Lumsample−LumNC)/(LumPC−LumNC). Calculate the IC50 by fitting the curve using Xlfit (v5.3.1.3), equation 201: fit=(A+((B−A)/(1+((x/C)^D)))); A: Botton; B: Top; C: IC50; and D: Slope.
The letter codes for STAT3 DC50 include: A (<0.01 μM), B (0.01-0.1 μM), C (0.1-1.0 μM), and D (>1.0 μM).

T1 sequence (P40763 whole entry): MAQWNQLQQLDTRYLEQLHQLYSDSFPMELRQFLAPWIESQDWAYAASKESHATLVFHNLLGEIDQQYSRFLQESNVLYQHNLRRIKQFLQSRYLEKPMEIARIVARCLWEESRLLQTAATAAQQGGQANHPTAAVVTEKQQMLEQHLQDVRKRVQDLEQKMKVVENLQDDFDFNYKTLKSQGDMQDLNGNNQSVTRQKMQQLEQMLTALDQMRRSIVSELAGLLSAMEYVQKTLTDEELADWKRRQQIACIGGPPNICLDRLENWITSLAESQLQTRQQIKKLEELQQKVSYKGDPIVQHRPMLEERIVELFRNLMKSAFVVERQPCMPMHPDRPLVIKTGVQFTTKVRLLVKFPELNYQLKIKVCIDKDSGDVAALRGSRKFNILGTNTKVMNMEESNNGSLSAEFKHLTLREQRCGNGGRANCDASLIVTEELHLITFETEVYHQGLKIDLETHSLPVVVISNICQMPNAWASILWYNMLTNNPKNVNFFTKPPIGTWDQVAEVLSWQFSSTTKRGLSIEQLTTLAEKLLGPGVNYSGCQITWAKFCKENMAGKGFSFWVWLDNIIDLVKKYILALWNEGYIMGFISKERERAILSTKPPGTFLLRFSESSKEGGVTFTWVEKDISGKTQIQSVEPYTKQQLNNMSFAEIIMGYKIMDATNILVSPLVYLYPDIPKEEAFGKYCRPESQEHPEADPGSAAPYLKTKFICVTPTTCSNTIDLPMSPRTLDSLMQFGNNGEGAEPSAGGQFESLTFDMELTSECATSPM

Compared with `CC(C)c1ccc(CNC(=O)[C@H](CCC(N)=O)NC(=O)[C@@H]2CC[C@@H]3CCN(C(=O)[C@H]4CC[C@@H](CCc5ccc6c(c5)n(C)c(=O)n6C5CCC(=O)NC5=O)CC4)C[C@H](NC(=O)c4cc5cc(C(=O)P(=O)(O)O)ccc5[nH]4)C(=O)N32)c(Cl)c1` (stereo partly drawn) [I-35, 2-[[(5S,8S,10aR)-8-[[(1S)-3-Carbamoyl-1-[[(2-chloro-4-isopropylphenyl)methyl]carbamoyl]propyl]carbamoyl]-6-oxo-3-[(1r,4s)-4-[2-[1-(2,6-dioxopiperidin-3-yl)-3-methyl-2-oxo-1,3-benzodiazol-5-yl]ethyl]cyclohexanecarbonyl]-octahydropyrrolo[1,2-a][1,5]diazocin-5-yl]carbamoyl]-1H-indole-5-carbonylphosphonic acid], `CC(C)c1ccc(CNC(=O)[C@H](CCC(=O)O)NC(=O)[C@@H]2CC[C@@H]3CCN(C(=O)[C@H]4CC[C@@H](CCc5ccc6c(c5)n(C)c(=O)n6C5CCC(=O)NC5=O)CC4)C[C@H](NC(=O)c4cc5cc(C(=O)P(=O)(O)O)ccc5[nH]4)C(=O)N32)cc1` (stereo partly drawn) [I-96, (4S)-4-[[(5S,8S,10aR)-6-oxo-5-[5-(phosphonocarbonyl)-1H-indole-2-amido]-3-[(1s,4s)-4-[2-[1-(2,6-dioxopiperidin-3-yl)-3-methyl-2-oxo-1,3-benzodiazol-5-yl]ethyl]cyclohexanecarbonyl]-octahydropyrrolo[1,2-a][1,5]diazocin-8-yl]formamido]-4-[[(4-isopropylphenyl)methyl]carbamoyl]butanoic acid] is higher in DC50: 10 to 100 nM for the first, over 1000 nM for the second.

First: Cc1ncsc1-c1ccc([C@H](C)NC(=O)[C@@H]2C[C@@H](O)CN2C(=O)[C@@H](NC(=O)CCCCCc2cccc(OC[C@H](CCC(N)=O)NC(=O)[C@@H]3CC[C@@H]4CCCC[C@H](NC(=O)c5cc6cc(C(=O)P(=O)(O)O)ccc6[nH]5)C(=O)N43)c2F)C(C)(C)C)cc1 [I-6]
Second: Cc1ncsc1-c1ccc([C@H](C)NC(=O)[C@@H]2C[C@@H](O)CN2C(=O)[C@@H](NC(=O)CCCCc2cccc(OC[C@H](CCC(N)=O)NC(=O)[C@@H]3CC[C@@H]4CCCC[C@H](NC(=O)c5cc6cc(C(=O)P(=O)(O)O)ccc6[nH]5)C(=O)N43)c2Cl)C(C)(C)C)cc1 [I-1]
The DC50 of the first is higher: 10 to 100 nM for the first, under 10 nM for the second.

First: Cn1c(=O)n(C2CCC(=O)NC2=O)c2ccc(CC[C@H]3CC[C@@H](C(=O)N4CC[C@H]5CC[C@@H](C(=O)N[C@@H](CCC(N)=O)c6ccccn6)N5C(=O)[C@@H](NC(=O)c5cc6cc(C(=O)P(=O)(O)O)ccc6[nH]5)C4)CC3)cc21 (some centres unmarked) [I-39]
Second: C[C@H](CCC(N)=O)NC(=O)[C@@H]1CC[C@@H]2CCN(C(=O)C[C@H]3CC[C@@H](Cc4ccc5c(c4)n(C)c(=O)n5C4CCC(=O)NC4=O)CC3)C[C@H](NC(=O)c3cc4cc(C(=O)P(=O)(O)O)ccc4[nH]3)C(=O)N21 (some centres unmarked) [I-50]
The DC50 of the first is lower: 10 to 100 nM for the first, 100 to 1000 nM for the second.

`CN(C)C(=O)[C@@H]1Cc2cc(CCCCCCc3ccc4c(c3)n(C)c(=O)n4C3CCC(=O)NC3=O)cc3c2N1C(=O)[C@@H](NC(=O)c1cc2cc(C(=O)P(=O)(O)O)ccc2[nH]1)CC3` (stereo partly drawn) [I-25, 2-[[(2S, 11S)-2-(dimethylcarbamoyl)-6-[6-[1-(2,6-dioxopiperidin-3-yl)-3-methyl-2-oxo-1,3-benzodiazol-5-yl]hexyl]-12-oxo-1-azatricyclo [6.4.1.0^[4, 13]]trideca-4(13), 5,7-trien-11-yl]carbamoyl]-1H-indole-5-carbonylphosphonic acid] and `CNC(=O)[C@@H]1Cc2cc(CCCCCCc3ccc4c(c3)n(C)c(=O)n4C3CCC(=O)NC3=O)cc3c2N1C(=O)[C@@H](NC(=O)c1cc2cc(C(=O)P(=O)(O)O)ccc2[nH]1)CC3` (some centres unmarked) [I-20] cannot be ordered by DC50: over 1000 nM for the first, over 1000 nM for the second.

`CC(=O)N1CC[C@H]2CC[C@@H](C(=O)N[C@@H](CCC(N)=O)COc3cc(C)cc(CCCCCC(=O)N[C@H](C(=O)N4C[C@@H](O)C[C@H]4C(=O)N[C@@H](C)c4ccc(-c5scnc5C)cc4)C(C)(C)C)c3F)N2C[C@@H](NC(=O)c2cc3cc(C(=O)P(=O)(O)O)ccc3[nH]2)C1` [I-23] and `CC(=O)N1CC[C@H]2CC[C@@H](C(=O)N[C@@H](CCC(N)=O)COc3cccc(CCCCC(=O)N[C@H](C(=O)N4C[C@@H](O)C[C@H]4C(=O)N[C@@H](C)c4ccc(-c5scnc5C)cc4)C(C)(C)C)c3Cl)N2C(=O)[C@@H](NC(=O)c2cc3cc(C(=O)P(=O)(O)O)ccc3[nH]2)C1` [I-43] cannot be ordered by DC50: over 1000 nM for the first, over 1000 nM for the second.

First: CC(=O)N1CC[C@H]2CC[C@@H](C(=O)N[C@@H](CCC(N)=O)COc3cccc(CCCC(=O)N[C@H](C(=O)N4C[C@H](O)C[C@H]4C(=O)NC4(c5ccc(-c6scnc6C)cc5)CC4)C(C)(C)C)c3Cl)N2C(=O)[C@@H](NC(=O)c2cc3cc(C(=O)P(=O)(O)O)ccc3[nH]2)C1 [I-72]
Second: Cc1ncsc1-c1ccc(C2(NC(=O)[C@@H]3C[C@@H](O)CN3C(=O)[C@@H](NC(=O)CCCCc3cccc(OC[C@H](CCC(N)=O)NC(=O)[C@@H]4CC[C@@H]5CCCC[C@H](NC(=O)c6cc7cc(C(=O)P(=O)(O)O)ccc7[nH]6)C(=O)N54)c3Cl)C(C)(C)C)CC2)cc1 [I-10]
The DC50 of the first is higher: 10 to 100 nM for the first, under 10 nM for the second.

First: Cc1ncsc1-c1ccc([C@H](C)NC(=O)[C@@H]2C[C@@H](O)CN2C(=O)[C@@H](NC(=O)CCCc2cccc(OC[C@H](CCC(N)=O)NC(=O)[C@@H]3CCCN3C(=O)[C@H](Cc3c[nH]cn3)NC(=O)c3cc4cc(C(=O)P(=O)(O)O)ccc4[nH]3)c2Cl)C(C)(C)C)cc1 [I-61]
Second: Cc1cc(CCCC(=O)N[C@H](C(=O)N2C[C@H](O)C[C@H]2C(=O)N[C@@H](C)c2ccc(-c3scnc3C)cc2)C(C)(C)C)c(Cl)c(OC[C@H](CCC(N)=O)NC(=O)[C@@H]2CC[C@@H]3CCCC[C@H](NC(=O)c4cc5cc(C(=O)P(=O)(O)O)ccc5[nH]4)C(=O)N32)c1 [I-5]
The DC50 of the first is higher: 10 to 100 nM for the first, under 10 nM for the second.

First: C[C@H](CCC(N)=O)NC(=O)[C@@H]1Cc2cc(CCCCCCc3ccc4c(c3)n(C)c(=O)n4C3CCC(=O)NC3=O)cc3c2N1C(=O)[C@@H](NC(=O)c1cc2cc(C(=O)P(=O)(O)O)ccc2[nH]1)CC3 (some centres unmarked) [I-49]
Second: C[C@H](CCC(=O)N(C)C)NC(=O)[C@@H]1Cc2cc(CCCCCCc3ccc4c(c3)n(C)c(=O)n4C3CCC(=O)NC3=O)cc3c2N1C(=O)[C@@H](NC(=O)c1cc2cc(C(=O)P(=O)(O)O)ccc2[nH]1)CC3 (some centres unmarked) [I-21]
The DC50 of the first is lower: 10 to 100 nM for the first, over 1000 nM for the second.

Compared with `Cn1c(=O)n(C2CCC(=O)NC2=O)c2ccc(CCCc3cccc(OC[C@H](CCC(N)=O)NC(=O)[C@@H]4CC[C@@H]5CCCC[C@H](NC(=O)c6cc7cc(C(=O)P(=O)(O)O)ccc7[nH]6)C(=O)N54)c3Cl)cc21` (some centres unmarked) [I-27], `Cn1c(=O)n(C2CCC(=O)NC2=O)c2ccc(C[C@H]3CC[C@@H](CC(=O)N4CC[C@H]5CC[C@@H](C(=O)N[C@@H](CCC(N)=O)COc6cccc(S(C)(=O)=O)c6)N5C(=O)[C@@H](NC(=O)c5cc6cc(C(=O)P(=O)(O)O)ccc6[nH]5)C4)CC3)cc21` (some centres unmarked) [I-51] is lower in DC50: over 1000 nM for the first, 10 to 100 nM for the second.

Compared with `Cn1c(=O)n(C2CCC(=O)NC2=O)c2ccc(C[C@H]3CC[C@@H](CC(=O)N4CC[C@H]5CC[C@@H](C(=O)N[C@@H](CCC(N)=O)COc6ccc(S(C)(=O)=O)cc6)N5C(=O)[C@@H](NC(=O)c5cc6cc(C(=O)P(=O)(O)O)ccc6[nH]5)C4)CC3)cc21` (some centres unmarked) [I-67], `Cn1c(=O)n(C2CCC(=O)NC2=O)c2ccc(C[C@H]3CC[C@@H](CC(=O)N4CC[C@H]5CC[C@@H](C(=O)NC6(CCC(N)=O)CC6)N5C(=O)[C@@H](NC(=O)c5cc6cc(C(=O)P(=O)(O)O)ccc6[nH]5)C4)CC3)cc21` (some centres unmarked) [I-31] is higher in DC50: 100 to 1000 nM for the first, over 1000 nM for the second.
